# Target: T1, arginase Th2-dépendante (Homo sapiens, UniProt P05089)
# T1 sequence (P05089 1-322): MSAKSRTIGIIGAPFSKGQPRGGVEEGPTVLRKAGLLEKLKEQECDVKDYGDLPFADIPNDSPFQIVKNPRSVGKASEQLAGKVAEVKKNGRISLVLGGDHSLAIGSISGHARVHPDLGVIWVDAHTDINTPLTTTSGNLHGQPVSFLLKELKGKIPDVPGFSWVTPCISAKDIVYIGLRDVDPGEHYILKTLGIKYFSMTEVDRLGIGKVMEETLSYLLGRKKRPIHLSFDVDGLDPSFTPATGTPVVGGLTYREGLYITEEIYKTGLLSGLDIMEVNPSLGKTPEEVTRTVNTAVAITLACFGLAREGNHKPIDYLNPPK
# Assay: Inhibition of Th2-dependent arginase
# Type: biochemical
compound,measurement,value
"NCCCC[C@H](N)C(=O)O [L-Lysine, L-lysine]",action sur l'arginase Th2-dépendante,action inhibitrice

# From patent EP1967187A1, “Composition based on rutin and L-lysine” (Ennamany, Rachid, priority 2007, dated 2008)
